“And” between values parts separate entries of the source, which are not always exact repeats. Identical values can stand only once. Like-named read-outs stand apart in the source and are kept apart here.
Key:
Assay type in all cases: cell-based, Escherichia coli Nissle 1917
[1] = system: Pykg, Pent and Pabt promoter constructs; experiment: TPEN induction of promoter-sfgfp constructs (fluorescence); conditions: M9 minimal medium
Description: Selection of the ykgMO promoter to sense calprotectin levels. To assess the ykg, ent, and abt promoters as potential sensors of the metal sequestration activity of calprotectin, Pykg, Pent, and Paht were cloned into plasmid pColE1 driving the expression of superfolder GFP (sfgfp). Sensor fluorescence was next analyzed in M9 minimal medium and used metal chelator TPEN to mimic the metal depletion of calprotectin.
EcN biosensor constructs were grown to early log phase (˜0.1 OD600) in M9 media with glucose, and were back diluted to 0.01 OD600 and then grown for ˜4 hours aerobically, until OD600 reached ˜0.15. At this point, cells were kept on ice until analysis on a Becton Dickinson FACScan flow cytometer. Flow cytometry runs were performed in 96 well plates. Briefly, 10-40 μL of cells were added to 1 mL of PBS sheath fluid and run through the flow cytometer for a total of 10000 events. Cells were thresholded on forward/side scatter, and .fsc files were analyzed with the FlowCal software. In short, FlowCal identifies the densest region of cells on the associated scatterplot, and analyzes the fluorescent output of 30% of the cells in this region so as to evaluate a homogenous dataset and remove possible outliers. […] In this case, sfGFP output is reported as molecules of equivalent fluorophores (MEF), and was evaluated on the FL1 channel. […]

ykgMO, ent and abt genes = experiment: RT-qPCR verification of calprotectin-responsive genes with TPEN; conditions: 30 μM TPEN, LB media, 30 minutes
Text: FIGS. 1A-1K. Selection of the ykgMO promoter to sense calprotectin levels and sensitivity of ygkMO, ent and abt biosensors to metal starvation. 1A: Sensitivity of ykgMO (50S Ribosomal Protein L36/L31 type B) promoter (Pykg) biosensor to calprotectin; 1B-ID: Sensitivity of ent (1B), abt (1C), and ykg (1D) promoter constructs to TPEN in M9 media detected by Flow Cytometer; 1E: Minimum inhibitory concentration (MIC) of calprotectin on E. coli Nissile1917 (referred to EcN) in LB media; IF: Upregulation of calprotectin responsive promoters with TPEN induction in LB media verified by RT-qPCR; 1G: Sensitivity of ent promoter construct to TPEN in M9 media detected by plate reader; 1H: Sensitivity of abt promoter construct to TPEN in M9 media detected by plate reader; 1I: Sensitivity of ykg promoter construct to TPEN in M9 media detected by plate reader; 1J: Upregulation of calprotectin responsive ykgMO) promoter with TPEN induction in M9 media verified by RT-qPCR; 1K: Quenching of different ions on Pykg biosensor (EcN/pBSI0). Equimolar (1.5 μM) or 10×-excess (15 μM) of Zn^2+, Mn^2+, and Fe^2+ were added to Pykg biosensor co-cultured with 40 μg/mL calprotectin in M9 media. 1.5 μM (equivalent metal binding capacity of 40 μg/mL calprotectin), 3 μM, or 30 μM co-cultured with E. coli Nissle 1917 biosensors in pure culture. Calprotectin only-N=9. […]

ykg promoter = experiment: Zur expression optimization for low basal expression of ykg promoter; conditions: zur driven by constitutive promoter on same plasmid
Text: To increase the dynamic range of the Pykg expression, the high level of basal expression when the operon is not activated by zinc limitation needed to be reduced. It was considered that the basal level of expression was high because the ykg promoter was being expressed from a multicopy plasmid while the Zur repressor was being synthesized from the chromosome, altering their normal stoichiometry. To identify the optimal level of Zur to reduce the basal expression while maintaining the ability to respond to zinc limitation, several constructs were tested in which the zur gene was driven by constitutive promoters of increasing strength on the same plasmid as the ykg promoter (FIG. 2A) . . . . […] Other promoters were either too weak (J23113) to reduce the basal level of promoter expression or were too strong (J23100, J23110) to allow induction of the Pykg upon zinc depletion. Additional studies utilized the J23109 promoter construct, now denoted as pBSI1 (bacterial sensor of inflammation).
To reduce the background of Pygk biosensor, zinc binding transcription factor Zur was inserted into pColE-based sensor construct (pColE1-Pykg-sfgfp) under the control of different constitutive expresison promoters. […] The sensitivity and expression strength of new biosensor constructs was analyzed through fluorescence detection and RT-qPCR.

[2] = system: Pykg biosensor (EcN/pBSI0)
Description: To validate that the Pykg is sensitive to zinc but not other metals bound by calprotectin, BSI0 was incubated with 40 μg/mL of calprotectin with or without supplementation of an equimolar amount of zinc, manganese, or iron.
Mixes were similar to the calprotectin induction assays with the addition of zinc sulfate, manganese sulfate, or iron chloride. Concentrations of metals were added in excess of 1× and 10× the binding capacity of 40 μg/mL (1.5 μM) calprotectin. In total, 4 μM and 40 μM of zinc and iron were added, and 2 μM and 20 μM of manganese was added.

[3] = system: siderophore enterobactin operon (ent); experiment: RNA sequencing of calprotectin-treated EcN: ent operon; conditions: 125 μg/mL calprotectin 30 min, LB, over untreated cells
Description: (§1) It was considered that exposing EcN to a sub-inhibitory concentration of calprotectin that was near the MIC would yield the best opportunity to identify physiologically relevant promoters that respond to calprotectin. The minimal inhibitory concentration of calprotectin (250 μg/mL) was first identified using EcN growth in LB media (FIG. 1E). Therefore, EcN were grown into the mid-exponential phase in LB media and then treated cultures with 125 µg/mL of calprotectin for 30 minutes or without calprotectin as a negative control. As an additional control, a mutant version was used of calprotectin that lacks the ability to bind metals, rendering the protein unable to carry out nutritional immunity.
(§2) For transcriptome analysis, EcN cells were grown overnight, and then back-diluted 1:100 into 5 mL of LB broth. When cells were grown up to the log phase, the sub-inhibitory amount of calprotectin was added to the cultures at a final concentration of 125 μg/mL. […] RNA was quantified and tested for purity using a Denovix spectrophotometer (Denovix, Wilmington, Delaware). RNA-seq was performed by Applied Biological Materials (ABM) (Richmond, British Columbia, Canada) on an Illumina NextSeq sequencer, at an average of 5 million reads per sample. rRNA depletion and quality check were also performed by ABM. […]

[4] = system: ATP-binding cassette transporter cluster (abt); experiment: RNA sequencing of calprotectin-treated EcN: abt cluster; conditions: 125 μg/mL calprotectin 30 min, LB, over untreated cells
Description: as §1, §2

[5] = system: E. coli Nissle 1917 (EcN); experiment: Minimum inhibitory concentration of calprotectin on EcN; conditions: 10^4 EcN cells, overnight, LB media, two-fold dilutions
Description: Identification of E. coli Nissle promoters responsive to calprotectin. […] Currently, fecal calprotectin levels are used as a non-invasive way of monitoring intestinal inflammation, however compliance with such tests is low due to the need for patients to handle their own feces. Therefore, the development of an ingestible bacterial biosensor that would sense and report intestinal inflammation was contemplated. […] To do this the minimal inhibitory concentration of calprotectin incubated with EcN in vitro was first identified.
as §1
To explore biosensor promoters that can respond to calprotectin, the transcriptome of EcN treated with the sub-inhibitory amount of calprotectin was analyzed. […]

[6] = system: ykgMO operon (50S Ribosomal Protein L36/L31 type B); experiment: RNA sequencing of calprotectin-treated EcN: ykgMO operon; conditions: 125 μg/mL calprotectin 30 min, LB, over untreated cells
Description: as §1, §2

[7] = 40 μg/mL calprotectin, equimolar metal, M9

c1ccc(CN(CCN(Cc2ccccn2)Cc2ccccn2)Cc2ccccn2)nc1 [TPEN, N,N,N′, N′-tetrakis(2-pyridinylmethyl)-1,2-ethanediamine]
activation of promoter constructs (sfGFP fluorescence) compared to control [1]: 2-3 fold
gene upregulation by RT-qPCR (ykgMO, ent and abt genes): upregulated

J23109: constitutive promoter (SEQ ID NO: 5) driving zur; construct denoted pBSI1 (DNA TTTACAGCTAGCTCAGTCCTAGGGACTGTGCTAGC; listed as DNA, chemistry not fully specified)
reduction of basal expression from the ykg promoter (ykg promoter): 100 fold

O=S(=O)([O-])[O-].[Zn+2] [Zn, zinc sulfate]
repression of BSI0 activation in the presence of calprotectin [2]: totally repress the activation

J23114: constitutive promoter (SEQ ID NO: 4) driving zur on the ykg promoter plasmid (DNA TTTATGGCTAGCTCAGTCCTAGGTACAATGCTAGC; listed as DNA, chemistry not fully specified)
reduction of basal expression from the ykg promoter (ykg promoter): 100 fold

iron chloride [Fe]
repression of BSI0 activation in the presence of calprotectin [2, 7]: not

manganese sulfate [Mn]
repression of BSI0 activation in the presence of calprotectin [2, 7]: not

B1: calprotectin: Recombinant human calprotectin; neutrophil-source antimicrobial protein that sequesters zinc, manganese and iron (protein, UniProt P05109 1-93; P06702 1-114, looked up)
Protein S100-A8: MLTELEKALNSIIDVYHKYSLIKGNFHAVYRDDLKKLLETECPQYIRKKGADVWFKELDINTDGAVNFQEFLILVIKMGVAAHKKSHEESHKE
Protein S100-A9: MTCKMSQLERNIETIINTFHQYSVKLGHPDTLNQGEFKELVRKDLQNFLKKENKNEKVIEHIMEDLDTNADKQLSFEEFIMLMARLTWASHEKMHEGDEGPGHHHKPGLGEGTP
Fold-Change in Gene Expression, ent operon [3]: up to 4.8 fold
Fold-Change in Gene Expression, ent operon ([3]; listed as Calprotectin): 4.38-4.78 fold
Fold-Change in Gene Expression, ABC transporter cluster [4]: 3.80-9.44 fold
minimal inhibitory concentration of calprotectin [5]: 256 µg/mL and 250 µg/mL
Fold-Change in Gene Expression, ykgMO [6]: up to 10.3 fold
Fold-Change in Gene Expression, ykgMO ([6]; listed as Calprotectin): 4.20-10.26 fold
